Measured values reported in patent publication US10988477B2 (Merck Patent GmbH, priority 2018, dated 2021).

How the values were obtained:
[1] = target: GCN2 kinase (Homo sapiens, UniProt Q9P2K8); experiment: GCN2 enzyme inhibition assay (Transcreener ADP2 fluorescence polarization); format: biochemical; conditions: 280 μM ATP
Summary of the method: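 Kinase activity is followed as ADP formation, measured by fluorescence polarization, using 4 nM enzyme with 280 μM ATP and 200 μM (RS)7 peptide at pH 7.5 and 25 °C for 1 h. Values come from a non-linear tight-binding fit.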

[2] = target: intracellular GCN2 (phosphorylation of the GCN2 substrate eIF2α) (Homo sapiens, UniProt Q9P2K8); experiment: GCN2 cellular inhibition assay (AlphaScreen SureFire P-eIF2α Ser51, borrelidin-treated U2OS cells); format: cell-based; conditions: biomarker assay, phosphorylated eIF2α Ser51 in borrelidin-treated U2OS cells
Summary of the method: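 First, U2OS cells are plated and left overnight at 37 °C. Next, compounds (from 40 μM final, 4-fold steps) and 10 μM borrelidin are added for 1 h, cells lysed, and phospho-Ser51 eIF2α detected by AlphaScreen bead sandwich. Inhibition is computed versus borrelidin-only wells.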

[3] = compounds of Formula II, 4 nM GCN2 kinase
[4] = Enzyme activity for compounds of Formula IV, Ki(app), 25° C.

Chain of intracellular GCN2 (phosphorylation of the GCN2 substrate eIF2α) (Q9P2K8 whole entry): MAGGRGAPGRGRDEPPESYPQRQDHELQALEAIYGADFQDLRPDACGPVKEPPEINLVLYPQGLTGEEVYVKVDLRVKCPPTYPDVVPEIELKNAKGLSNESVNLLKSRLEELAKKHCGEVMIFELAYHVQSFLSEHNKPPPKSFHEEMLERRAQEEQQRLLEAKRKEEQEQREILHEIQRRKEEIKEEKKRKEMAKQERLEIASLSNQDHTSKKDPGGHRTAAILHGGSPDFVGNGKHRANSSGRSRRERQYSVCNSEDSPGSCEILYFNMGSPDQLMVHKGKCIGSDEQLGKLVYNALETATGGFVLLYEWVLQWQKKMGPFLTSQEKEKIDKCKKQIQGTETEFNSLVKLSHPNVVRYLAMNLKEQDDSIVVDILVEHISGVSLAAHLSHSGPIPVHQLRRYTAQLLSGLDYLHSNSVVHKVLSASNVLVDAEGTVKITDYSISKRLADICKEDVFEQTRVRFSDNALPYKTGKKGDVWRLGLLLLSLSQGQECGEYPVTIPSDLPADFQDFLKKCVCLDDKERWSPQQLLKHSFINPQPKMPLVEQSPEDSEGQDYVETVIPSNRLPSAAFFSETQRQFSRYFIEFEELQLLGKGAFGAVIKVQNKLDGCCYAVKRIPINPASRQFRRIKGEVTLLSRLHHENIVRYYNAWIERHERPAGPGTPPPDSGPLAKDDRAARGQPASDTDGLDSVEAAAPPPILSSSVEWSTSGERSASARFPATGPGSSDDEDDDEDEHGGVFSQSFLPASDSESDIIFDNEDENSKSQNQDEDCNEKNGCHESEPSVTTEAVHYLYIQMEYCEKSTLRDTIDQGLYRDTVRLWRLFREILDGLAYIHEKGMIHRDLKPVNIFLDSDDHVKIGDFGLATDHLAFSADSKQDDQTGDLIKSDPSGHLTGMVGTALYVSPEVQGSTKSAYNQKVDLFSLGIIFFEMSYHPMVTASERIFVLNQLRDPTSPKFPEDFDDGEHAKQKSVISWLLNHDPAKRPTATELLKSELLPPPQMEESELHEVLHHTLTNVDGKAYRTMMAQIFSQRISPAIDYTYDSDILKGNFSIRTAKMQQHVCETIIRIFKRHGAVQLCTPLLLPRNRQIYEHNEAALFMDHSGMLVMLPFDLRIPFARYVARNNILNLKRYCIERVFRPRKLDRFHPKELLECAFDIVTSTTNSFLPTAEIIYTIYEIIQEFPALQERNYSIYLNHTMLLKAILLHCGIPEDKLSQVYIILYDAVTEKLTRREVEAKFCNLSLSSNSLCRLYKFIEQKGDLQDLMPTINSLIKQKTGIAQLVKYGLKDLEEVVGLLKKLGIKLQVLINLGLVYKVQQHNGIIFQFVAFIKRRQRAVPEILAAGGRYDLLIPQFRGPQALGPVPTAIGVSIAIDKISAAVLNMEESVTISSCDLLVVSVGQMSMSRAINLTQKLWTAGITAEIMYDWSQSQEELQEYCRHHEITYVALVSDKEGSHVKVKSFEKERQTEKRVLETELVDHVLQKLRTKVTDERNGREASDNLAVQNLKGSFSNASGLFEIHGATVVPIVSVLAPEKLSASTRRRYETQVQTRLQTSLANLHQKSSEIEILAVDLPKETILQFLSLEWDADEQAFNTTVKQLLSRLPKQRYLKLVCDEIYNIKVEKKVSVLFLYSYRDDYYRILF
Chain of GCN2 kinase (Q9P2K8 whole entry): as above

Row | Compound | Ki [1, 3] [nM] | IC50 ([2]; compounds of Formula II) [nM] | Ki [1, 4] [nM] | IC50 ([2]; compounds of Formula IV) [nM]
1 | CC1CN(c2cc(-c3cnc4ccc(C(F)F)nn34)ncn2)C(C)C(c2cn[nH]c2)N1 (single isomer, unassigned) [II-652, 6-(Difluoromethyl)-3-(6-(2,5-dimethyl-3-(1H-pyrazol-4-yl)piperazin-1-yl)pyrimidin-4-yl)imidazo[1,2-b]pyridazine] | 10 to 1000 | 500 to 5000 | – | –
2 | CC1CC(C(N)=O)C(C)N(c2cc(-c3cnc4ccc(C(F)(F)F)nn34)ncn2)C1 (single isomer, unassigned) [II-717, 2,5-Dimethyl-1-[6-[6-(trifluoromethyl)imidazo[1,2-b]pyridazin-3-yl]pyrimidin-4-yl]piperidine-3-carboxamide] | < 10 | < 500 | – | –
3 | CC1CC(N=S(C)(C)=O)CN(c2cc(-c3cnc4ccc(C(F)F)nn34)c(F)cn2)C1 (single isomer, unassigned) [II-723, ((1-(4-(6-(Difluoromethyl)imidazo[1,2-b]pyridazin-3-yl)-5-fluoropyridin-2-yl)-5-methylpiperidin-3-yl)imino)dimethyl-λ^6-sulfanone] | 10 to 1000 | 500 to 5000 | – | –
4 | FC(F)(F)c1cn2c(-c3nccc(N4CCOC(c5cn[nH]c5)C4)n3)cnc2cn1 (single isomer, unassigned) [IV-7, 2-(1H-Pyrazol-4-yl)-4-(2-(6-(trifluoromethyl)imidazo[1,2-a]pyrazin-3-yl)pyrimidin-4-yl)morpholine] | – | – | 10 to 100 | 500 to 5000
5 | FC(F)(F)c1cn2c(-c3nccc(N4CCOC(c5cn[nH]c5)C4)n3)cnc2cn1 (single isomer, unassigned) [IV-8, 2-(1H-Pyrazol-4-yl)-4-(2-(6-(trifluoromethyl)imidazo[1,2-a]pyrazin-3-yl)pyrimidin-4-yl)morpholine] | – | – | < 10 | 500 to 5000
6 | CC1C(c2cn[nH]c2)OCCN1c1ccnc(-c2cnc3cnc(Cl)cn23)n1 (single isomer, unassigned) [IV-9, 4-(2-(6-Chloroimidazo[1,2-a]pyrazin-3-yl)pyrimidin-4-yl)-3-methyl-2-(1H-pyrazol-4-yl)morpholine] | – | – | < 10 | < 500
7 | CC1CN(c2ccnc(-c3cnc4cnc(C(F)(F)F)cn34)n2)CC(c2cn[nH]c2)O1 (single isomer, unassigned) [IV-13, 2-Methyl-6-(1H-pyrazol-4-yl)-4-(2-(6-(trifluoromethyl)imidazo[1,2-a]pyrazin-3-yl)pyrimidin-4-yl)morpholine] | – | – | 10 to 100 | < 500
8 | CC1CN(c2ccnc(-c3cnc4cnc(C(F)(F)F)cn34)n2)CC(c2cn[nH]c2)O1 (single isomer, unassigned) [IV-14, 2-Methyl-6-(1H-pyrazol-4-yl)-4-(2-(6-(trifluoromethyl)imidazo[1,2-a]pyrazin-3-yl)pyrimidin-4-yl)morpholine] | – | – | < 10 | < 500
9 | CC1CN(c2ccnc(-c3cnc4cnc(C(F)(F)F)cn34)n2)CC(c2cn[nH]c2)O1 (single isomer, unassigned) [IV-15, 2-Methyl-6-(1H-pyrazol-4-yl)-4-(2-(6-(trifluoromethyl)imidazo[1,2-a]pyrazin-3-yl)pyrimidin-4-yl)morpholine] | – | – | 10 to 100 | 500 to 5000
10 | CC1CN(c2ccnc(-c3cnc4cnc(C(F)(F)F)cn34)n2)CC(c2cn[nH]c2)O1 (single isomer, unassigned) [IV-16, 2-Methyl-6-(1H-pyrazol-4-yl)-4-(2-(6-(trifluoromethyl)imidazo[1,2-a]pyrazin-3-yl)pyrimidin-4-yl)morpholine] | – | – | 10 to 100 | 500 to 5000
11 | CC1CN(c2ccnc(-c3cnc4cnc(C#N)cn34)n2)CC(c2cn[nH]c2)O1 (single isomer, unassigned) [IV-191, 3-(4-(2-Methyl-6-(1H-pyrazol-4-yl)morpholino)pyrimidin-2-yl)imidazo[1,2-a]pyrazine-6-carbonitrile] | – | – | 10 to 100 | 500 to 5000
12 | CC1CN(c2ccnc(-c3cnc4cnc(Cl)cn34)n2)CC(c2cn[nH]c2)O1 (single isomer, unassigned) [IV-192, 4-(2-(6-Chloroimidazo[1,2-a]pyrazin-3-yl)pyrimidin-4-yl)-2-methyl-6-(1H-pyrazol-4-yl)morpholine] | – | – | < 10 | 500 to 5000
13 | CC1CN(c2nccc(-c3cnc4cnc(C(F)(F)F)cn34)n2)CC(c2cn[nH]c2)O1 (single isomer, unassigned) [IV-199, 2-Methyl-6-(1H-pyrazol-4-yl)-4-(4-(6-(trifluoromethyl)imidazo[1,2-a]pyrazin-3-yl)pyrimidin-2-yl)morpholine] | – | – | 10 to 100 | 500 to 5000
14 | CC1CN(c2nccc(-c3cnc4cnc(C(F)(F)F)cn34)n2)CC(c2cn[nH]c2)O1 (single isomer, unassigned) [IV-200, 2-Methyl-6-(1H-pyrazol-4-yl)-4-(4-(6-(trifluoromethyl)imidazo[1,2-a]pyrazin-3-yl)pyrimidin-2-yl)morpholine] | – | – | < 10 | 500 to 5000
15 | CC1CN(c2nccc(-c3cnc4cnc(C(F)(F)F)cn34)n2)CC(c2cn[nH]c2)O1 (single isomer, unassigned) [IV-201, 2-Methyl-6-(1H-pyrazol-4-yl)-4-(4-(6-(trifluoromethyl)imidazo[1,2-a]pyrazin-3-yl)pyrimidin-2-yl)morpholine] | – | – | < 10 | < 500
16 | CC1CN(c2nccc(-c3cnc4cnc(C(F)(F)F)cn34)n2)CC(c2cn[nH]c2)O1 (single isomer, unassigned) [IV-202, 2-Methyl-6-(1H-pyrazol-4-yl)-4-(4-(6-(trifluoromethyl)imidazo[1,2-a]pyrazin-3-yl)pyrimidin-2-yl)morpholine] | – | – | 10 to 100 | 500 to 5000
17 | CC1CN(c2ccnc(-c3cnc4cnc(Cl)cn34)n2)CC(c2cn[nH]c2)N1 (single isomer, unassigned) [IV-213, 6-Chloro-3-(4-(3-methyl-5-(1H-pyrazol-4-yl)piperazin-1-yl)pyrimidin-2-yl)imidazo[1,2-a]pyrazine] | – | – | 10 to 100 | 500 to 5000
18 | CC1CN(c2ccnc(-c3cnc4cnc(Cl)cn34)n2)CC(c2cn[nH]c2)N1 (single isomer, unassigned) [IV-214, 6-Chloro-3-(4-(3-methyl-5-(1H-pyrazol-4-yl)piperazin-1-yl)pyrimidin-2-yl)imidazo[1,2-a]pyrazine] | – | – | < 10 | < 500
19 | CC1CN(c2ccnc(-c3cnc4cnc(Cl)cn34)n2)CC(c2cn[nH]c2)O1 (single isomer, unassigned) [IV-216, 4-(2-(6-Chloroimidazo[1,2-a]pyrazin-3-yl)pyrimidin-4-yl)-2-methyl-6-(1H-pyrazol-4-yl)morpholine] | – | – | < 10 | 500 to 5000
20 | CC1CN(c2ccnc(-c3cnc4cnc(Cl)cn34)n2)CC(c2cn[nH]c2)O1 (single isomer, unassigned) [IV-217, 4-(2-(6-Chloroimidazo[1,2-a]pyrazin-3-yl)pyrimidin-4-yl)-2-methyl-6-(1H-pyrazol-4-yl)morpholine] | – | – | < 10 | < 500
21 | CC1C(c2cn[nH]c2)NCCN1c1ccnc(-c2cnc3cnc(Cl)cn23)n1 (single isomer, unassigned) [IV-230, 6-Chloro-3-(4-(2-methyl-3-(1H-pyrazol-4-yl)piperazin-1-yl)pyrimidin-2-yl)imidazo[1,2-a]pyrazine] | – | – | < 10 | 500 to 5000
